Where two headings read alike, the source gives them in different places.
What was measured:
[1] = system: Shigella sonnei ATCC 25931; assay: MIC, 2-fold dilution method in micro-well plate, S. sonnei; assay type: cell-based; conditions: S. sonnei ATCC25931, 37° C., read-out: Minimum Inhibitory Concentration
Procedure: (§1) The in vitro antibiotic activity of the present compound is measured using 2-fold dilution method with a micro-well plate and the bacteria are inoculated in about 10^5 cfu/ml after an overnight culture in a brain-heart infusion (BHI) broth at 37° C. The novel compounds of the present invention are converted to a hydrochloride salt form and diluted with a sterilized distilled water to make 10 mg/ml aqueous solution. After the mother liquor wherein the compound is diluted to the two-fold concentration has been obtained in the form of an aqueous solution, the respective 0.1 ml of diluted liquor is transferred to a well and is inoculated with 0.1 ml of the culture fluid to make about (10^5 -10^6)/2 cfu/ml.
(§2) After cultivation at 37° C., the minimum inhibitory concentration (MIC) is measured and recorded in Table I-V.
(§3) Table I-V show the minimum inhibitory concentrations (MIC).
Shigella sonnei ATCC 25931

[2] = system: Enterobacter aerogenes ATCC 13048; assay: MIC, 2-fold dilution method in micro-well plate, E. aerogenes; assay type: cell-based; conditions: Klebsiella aerogenes
Procedure: as §1, §2, §3
Enterobacter aerogenes ATCC 13048

[3] = system: Streptococcus pyrogens ATCC 19615; assay: MIC, 2-fold dilution method in micro-well plate, S. pyrogens; assay type: cell-based; conditions: S. pyrogenes ATCC19615, 37° C., read-out: Minimum Inhibitory Concentration
Procedure: as §1, §2, §3
Streptococcus pyrogens ATCC 19615

[4] = system: Klebsiella pneumoniae ATCC 13883; assay: MIC, 2-fold dilution method in micro-well plate, K. pneumoniae; assay type: cell-based
Procedure: as §1, §2, §3
Klebsiella pneumoniae ATCC 13883

[5] = system: Citrobacter freundii ATCC 8090; assay: MIC, 2-fold dilution method in micro-well plate, C. freundii; assay type: cell-based
Procedure: as §1, §2, §3
Citrobacter freundii ATCC 8090

[6] = system: Streptococcus pneumoniae ATCC 6303; assay: MIC, 2-fold dilution method in micro-well plate, S. pneumoniae; assay type: cell-based; conditions: S. pneuinoniae ATCC6303, 37° C., read-out: Minimum Inhibitory Concentration
Procedure: as §1, §2, §3
Streptococcus pneumoniae ATCC 6303

[7] = system: Haemophilus influenza ATCC 35056; assay: MIC, 2-fold dilution method in micro-well plate, H. influenzae; assay type: cell-based; conditions: H. influenzae ATCC35056, 37° C.; read-out: Minimum Inhibitory Concentration
Procedure: as §1, §2, §3
Haemophilus influenza ATCC 35056

[8] = system: Pseudomonas aeruginosa ATCC 27853; assay: MIC, 2-fold dilution method in micro-well plate, P. aeruginosa; assay type: cell-based
Procedure: as §1, §2, §3
Pseudomonas aeruginosa ATCC 27853

[9] = system: Shigella flexneri ATCC 12022; assay: MIC, 2-fold dilution method in micro-well plate, S. flexneri; assay type: cell-based; conditions: S. flexneri ATCC12022, 37° C., read-out: Minimum Inhibitory Concentration
Procedure: as §1, §2, §3
Shigella flexneri ATCC 12022

[10] = system: Serratia marcescens ATCC 8100; assay: MIC, 2-fold dilution method in micro-well plate, S. marcescens; assay type: cell-based
Procedure: as §1, §2, §3
Serratia marcescens ATCC 8100

[11] = system: Escherichia coli ATCC 25922; assay: MIC, 2-fold dilution method in micro-well plate, E. coli; assay type: cell-based
Procedure: as §1, §2, §3
Escherichia coli ATCC 25922

[12] = system: Acinetobacter calcoaceticus; assay: MIC, 2-fold dilution method in micro-well plate, A. calcoaceticus; assay type: cell-based
Procedure: as §1, §2
Table I-V show the minimum inhibitory concentrations (MIC). […]

Enterobacter cloacae = assay: MIC, 2-fold dilution method in micro-well plate, E. cloacae; assay type: cell-based; conditions: read-out: Minimum Inhibitory Concentration
Procedure: as §1, §2, §3
Enterobacter cloacae ATCC 23355

[13] = system: Proteus vulgaris ATCC 13315; assay: MIC, 2-fold dilution method in micro-well plate, P. vulgaris; assay type: cell-based
Procedure: as §1, §2, §3
Proteus vulgaris ATCC 13315

[14] = system: Streptococcus faecalis ATCC 19433; assay: MIC, 2-fold dilution method in micro-well plate, S. faecalis ATCC 19433; assay type: cell-based; conditions: Enterococcus faecalis; S. faecalis ATCC19433, 37° C.; read-out: Minimum Inhibitory Concentration
Procedure: as §1, §2, §3
Streptococcus faecalis ATCC 19433

[15] = system: Salmonella typhimurium ATCC 14028; assay: MIC, 2-fold dilution method in micro-well plate, S. typhimurium; assay type: cell-based; conditions: Salmonella enterica, read-out: Minimum Inhibitory Concentration
Procedure: as §1, §2, §3
Salmonella typhimurium ATCC 14028

[16] = system: Streptococcus faecalis ATCC 29212; assay: MIC, 2-fold dilution method in micro-well plate, S. faecalis ATCC 29212; assay type: cell-based; conditions: Enterococcus faecalis; S. faecalis ATCC29212, 37° C.; read-out: Minimum Inhibitory Concentration
Procedure: as §1, §2, §3
Streptococcus faecalis ATCC 29212

[17] = Pharmacokinetic properties in ICR mouse, oral and subcutaneous, Bio-Assay (Agar well method); assay type: in vivo; conditions: 40 mg/kg, average of four tests; for dose excreted: urine, read-out: Urine Recovery
Procedure: The pharmacokinetic properties are tested by orally administrating and subcutaneously injecting a test compound and a substance for control to a ICR Mouse with 22 g±10% weight, drawing blood after 10, 20, 30, 45, 60, 90, 120, 150, 180 and […] and analyzed by Bio-Assay (Agar well method).

[18] = E. aerogenes ATCC13048, 37° C., read-out: Minimum Inhibitory Concentration
[19] = ATCC13883, read-out: Minimum Inhibitory Concentration
[20] = C. freundii ATCC8090, 37° C., read-out: Minimum Inhibitory Concentration
[21] = P. aerugirnosa ATCC27853, 37° C., read-out: Minimum Inhibitory Concentration
[22] = S. marcescens ATCC8100, 37° C., read-out: Minimum Inhibitory Concentration
[23] = E. coli ATCC25922, 37° C., read-out: Minimum Inhibitory Concentration
[24] = ATCC8090, read-out: Minimum Inhibitory Concentration
[25] = ATCC13315, read-out: Minimum Inhibitory Concentration
[26] = K. pneumoniae ATCC13883, 37° C., read-out: Minimum Inhibitory Concentration
[27] = A. calcoaceticus ATCC8090 (as in tables), 37° C., read-out: Minimum Inhibitory Concentration
[28] = P. vulgaris ATCC13315, 37° C., read-out: Minimum Inhibitory Concentration
[29] = S. typhisurium ATCC14028, 37° C.
[30] = ATCC8100, read-out: Minimum Inhibitory Concentration
[31] = ATCC13048, read-out: Minimum Inhibitory Concentration
[32] = ATCC25922, read-out: Minimum Inhibitory Concentration

SMILES	MIC [1]	MIC [2, 18]	MIC [3]	MIC [4, 19]	MIC [6]	MIC [7]	MIC [8, 21]	MIC [9]	MIC [11, 23]	MIC [12, 24]	MIC (Enterobacter cloacae)	MIC [13, 25]	MIC [14]	MIC [15]	MIC [16]	MIC [12, 27]	MIC [5, 24]	MIC [10, 30]	MIC [2, 31]	MIC [11, 32]	also measured
Cl.O=C(O)c1cn(-c2ccncc2F)c2cc(N3CCNCC3)c(F)cc2c1=O [Example 1, 1-(3-fluoro-4-pyridyl)-6-fluoro-7-(1-piperazinyl)-1,4-dihydro-4-oxoquinoline-3-carboxylic acid hydrochloride]	0.625 µg/mL	1.25 µg/mL	5 µg/mL	0.625 µg/mL	2.5 µg/mL	0.625 µg/mL	0.625 µg/mL	0.625 µg/mL	1.25 µg/mL	0.625 µg/mL	0.625 µg/mL	0.625 µg/mL	5 µg/mL	0.625 µg/mL	5 µg/mL	–	–	–	–	–	MIC [5, 20]: 1.25 µg/mL; MIC [10, 22]: 0.313 µg/mL
Cl.NC1CCN(c2nc3c(cc2F)c(=O)c(C(=O)O)cn3-c2ccc(F)cn2)C1 (centres unmarked) [Example 16, 1-(5-fluoro-2-pyridyl)-6-fluoro-7-(3-amino-1-pyrrolidinyl)-1,4-dihydro-4-oxo-1,8-naphthyridine-3-carboxylic acid hydrochloride]	0.02 µg/mL	0.313 µg/mL	2.5 µg/mL	–	1.25 µg/mL	0.078 µg/mL	0.156 µg/mL	0.039 µg/mL	0.078 µg/mL	–	–	–	1.25 µg/mL	–	0.625 µg/mL	0.156 µg/mL	–	–	–	–	MIC [4, 26]: 0.078 µg/mL; MIC [5, 20]: 0.078 µg/mL; MIC [10, 22]: 0.078 µg/mL; MIC (Enterobacter cloacae; E. cloacae ATCC23355 (as in tables), 37° C.): 0.156 µg/mL; MIC [13, 28]: 0.078 µg/mL; MIC [15, 29]: 0.313 µg/mL
CN1CCN(c2cc3c(cc2F)c(=O)c(C(=O)O)cn3-c2ccncc2F)CC1.Cl [Example 2, 1-(3-fluoro-4-pyridyl)-6-fluoro-7-(4-methyl-1-piperazinyl)-1,4-dihydro-4-oxoquinoline-3-carboxylic acid hydrochloride]	0.625 µg/mL	1.25 µg/mL	10 µg/mL	0.625 µg/mL	10 µg/mL	0.625 µg/mL	0.625 µg/mL	0.625 µg/mL	1.25 µg/mL	0.625 µg/mL	0.625 µg/mL	0.625 µg/mL	5 µg/mL	0.625 µg/mL	5 µg/mL	–	0.625 µg/mL	0.625 µg/mL	–	–	–
CC1CN(c2nc3c(cc2F)c(=O)c(C(=O)O)cn3-c2ccncc2F)CCN1.Cl (centres unmarked) [Example 9, 1-(3-fluoro-4-pyridyl)-6-fluoro-7-(3-methyl-1-piperazinyl)-1,4-dihydro-4-oxo-1,8-naphthyridine-3-carboxylic acid hydrochloride]	0.625 µg/mL	–	10 µg/mL	1.25 µg/mL	5 µg/mL	1.25 µg/mL	–	0.625 µg/mL	–	–	0.625 µg/mL	0.625 µg/mL	2.5 µg/mL	0.625 µg/mL	2.5 µg/mL	10 µg/mL	1.25 µg/mL	1.25 µg/mL	0.625 µg/mL	0.625 µg/mL	MIC ([8]; ATCC27853, read-out: Minimum Inhibitory Concentration): 0.625 µg/mL
CC1COc2c(N3CCN(C)CC3)c(F)cc3c(=O)c(C(=O)O)cn1c23 (centres unmarked) [Ofloxacin, reference compound]	–	–	–	–	–	–	–	–	–	–	–	–	–	–	–	–	–	–	–	–	AUC ([17]; blood, po, P.O): 12800 ng·h/mL; Cmax ([17]; blood, po, P.O): 9410 ng/mL; Tmax ([17]; blood, po, P.O): 45 min; bioavailability ([17]; blood, po, P.O): 89.8%; AUC ([17]; blood, sc, S.C): 14200 ng·h/mL; Cmax ([17]; blood, sc, S.C): 12900 ng/mL; Tmax ([17]; blood, sc, S.C): 25.2 min; half-life ([17]; blood, sc, S.C): 25.2 min; dose excreted ([17]; po, P.O): 32.2%; dose excreted ([17]; sc, S.C): 39.1%
CC1CN(c2cc3c(cc2F)c(=O)c(C(=O)O)cn3-c2ccncc2F)CCN1.Cl (centres unmarked) [Example 3, 1-(3-fluoro-4-pyridyl)-6-fluoro-7-(3-methyl-1-piperazinyl)-1,4-dihydro-4-oxoquinoline-3-carboxylic acid hydrochloride]	0.625 µg/mL	–	10 µg/mL	0.625 µg/mL	5 µg/mL	1.25 µg/mL	0.625 µg/mL	2.5 µg/mL	–	0.625 µg/mL	0.625 µg/mL	0.625 µg/mL	2.5 µg/mL	0.625 µg/mL	5 µg/mL	–	1.25 µg/mL	0.625 µg/mL	1.25 µg/mL	0.625 µg/mL	–
CC1CN(c2c(F)cc3c(=O)c(C(=O)O)cn(-c4ccc(F)cn4)c3c2F)CC(C)N1.Cl (centres unmarked) [Example 26, 1-(5-fluoro-2-pyridyl)-6,8-difluoro-7-(3,5-dimethyl-1-piperazinyl)-1,4-dihydro-4-oxoquinoline-3-carboxylic acid hydrochloride]	0.313 µg/mL	0.625 µg/mL	10 µg/mL	–	5 µg/mL	1.25 µg/mL	0.625 µg/mL	0.313 µg/mL	0.625 µg/mL	1.25 µg/mL	1.25 µg/mL	–	5 µg/mL	–	5 µg/mL	–	1.25 µg/mL	1.25 µg/mL	–	–	MIC [4, 26]: 0.625 µg/mL; MIC [13, 28]: 0.255 µg/mL; MIC [15, 29]: 0.625 µg/mL
Cl.O=C(O)c1cn(-c2ccc(F)cn2)c2c(F)c(N3CCNCC3)c(F)cc2c1=O [Example 23, 1-(5-fluoro-2-pyridyl)-6,8-difluoro-7-(1-piperazinyl)-1,4-dihydro-4-oxoquinoline-3-carboxylic acid hydrochloride]	0.078 µg/mL	–	5 µg/mL	–	2.5 µg/mL	0.625 µg/mL	1.25 µg/mL	0.313 µg/mL	–	–	0.625 µg/mL	0.313 µg/mL	5 µg/mL	0.313 µg/mL	5 µg/mL	1.25 µg/mL	0.625 µg/mL	0.625 µg/mL	0.625 µg/mL	0.625 µg/mL	MIC [4, 26]: 1.25 µg/mL
CC1CN(c2cc3c(cc2F)c(=O)c(C(=O)O)cn3-c2ccncc2F)CC(C)N1.Cl (centres unmarked) [Example 4, 1-(3-fluoro-4-pyridyl)-6-fluoro-7-(3,5-dimethyl-1-piperazinyl)-1,4dihydro-4-oxoquinoline-3-carboxylic acid hydrochloride]	0.625 µg/mL	–	10 µg/mL	0.625 µg/mL	10 µg/mL	1.25 µg/mL	0.625 µg/mL	1.25 µg/mL	–	–	0.625 µg/mL	0.625 µg/mL	5 µg/mL	1.25 µg/mL	5 µg/mL	2.5 µg/mL	1.25 µg/mL	1.25 µg/mL	1.25 µg/mL	1.25 µg/mL	–

— patent US5496947A, “Quinolone carboxylic acid derivatives” (Dong Wha Pharmaceutical Industrial Co., Ltd., priority 1994, dated 1996)
